Experimental data: article PMC7162861, “Synthesis, cytotoxicity, pharmacokinetic profile, binding with DNA and BSA of new imidazo[1,2-a]pyrazine-benzo[d]imidazol-5-yl hybrids” (Scientific Reports, 2020)

Tests used:
HCC-2998 = experiment: NCI cytotoxicity screen, Colon Cancer panel; type: cell-based, human
Description: (§1) Cytotoxicity was performed at National Cancer Institute (NCI), Bethesda, USA as per their protocols.

KM12 = experiment: NCI cytotoxicity screen, Colon Cancer panel; type: cell-based, human; conditions: five dose 0.01–100 µM
Description: as §1

SW-620 = experiment: NCI cytotoxicity screen, Colon Cancer panel; type: cell-based, human; conditions: five dose 0.01–100 µM
Description: as §1

IGROV1 = experiment: NCI cytotoxicity screen, Ovarian Cancer panel; type: cell-based; conditions: Homo sapiens, IGROV-1, five dose 0.01–100 µM
Description: as §1

NCI/ADR-RES = experiment: NCI cytotoxicity screen, Ovarian Cancer panel; type: cell-based
Description: as §1

OVCAR-4 = experiment: NCI cytotoxicity screen, Ovarian Cancer panel; type: cell-based
Description: as §1

OVCAR-5 = experiment: NCI cytotoxicity screen, Ovarian Cancer panel; type: cell-based; conditions: Homo sapiens
Description: as §1

OVCAR-8 = experiment: NCI cytotoxicity screen, Ovarian Cancer panel; type: cell-based
Description: as §1

SK-OV-3 = experiment: NCI cytotoxicity screen, Ovarian Cancer panel; type: cell-based
Description: as §1

786-0 = experiment: NCI cytotoxicity screen, Renal Cancer panel; type: cell-based, human; conditions: five dose 0.01–100 µM
Description: as §1

TK-10 = experiment: NCI cytotoxicity screen, Renal Cancer panel; type: cell-based, human; conditions: five dose 0.01–100 µM
Description: as §1

BT-549 = experiment: NCI cytotoxicity screen, Breast Cancer panel; type: cell-based
Description: as §1

HS 578 T = experiment: NCI cytotoxicity screen, Breast Cancer panel; type: cell-based
Description: as §1

MCF7 = experiment: NCI cytotoxicity screen, Breast Cancer panel; type: cell-based
Description: as §1

MDA-MB-231/ATCC = experiment: NCI cytotoxicity screen, Breast Cancer panel; type: cell-based
Description: as §1

MDA-MB-468 = experiment: NCI cytotoxicity screen, Breast Cancer panel; type: cell-based; conditions: Homo sapiens, five dose 0.01–100 µM
Description: as §1

T-47D = experiment: NCI cytotoxicity screen, Breast Cancer panel; type: cell-based
Description: as §1

EtBr-CT-DNA complex = experiment: Competitive binding with ethidium bromide for CT-DNA; set-up: species or system calf
Description: Ethidium bromide (EtBr) displacement experiments were performed by incremental addition of compound 31 to complex of EtBr-DNA. The EtBr (3 µM) and CT-DNA (30 µM) were titrated with incremental addition of compound 31 (0–85 µM) in phosphate buffer (pH 7.4). […] The quenching constant (Kq) was calculated using the Stern-Volmer equation (Eq. 2). The apparent binding constant (Kapp) was obtained from known binding constant for ethidium bromide (KEtBr = 1 × 10^7 M^−1) using the following equation (Eq. 4).4 Kapp=KEtBr[EtBr]/[compound]50% where [compound]50% and [EtBr] are the concentrations of the compound at 50% quenching of DNA-bound ethidium bromide emission intensity and ethidium bromide (3 µM), respectively.

CT-DNA = experiment: Thermal denaturation of CT-DNA; type: binding, calf; conditions: CT-DNA 8.5 µM : compound 10 µM, pH 7.4
Description: DNA melting studies were completed by measuring the absorption spectra at 260 nm of CT-DNA (8.5 µM) and CT-DNA-derivative 31 complex (8.5 µM:10 µM) in phosphate buffer (pH 7.4) at varying temperature from 20 to 100 °C using spectrophotometer connected with Peltier.

[1] = target: bovine serum albumin (BSA) (Bos taurus, UniProt P02769); experiment: BSA binding, fluorescence quenching (Stern-Volmer, Scatchard)
Description: The stock solution of compound 31 (10^−3 M) was prepared in DMSO and diluted to required concentration using appropriate buffer solution. Calf thymus (CT)-DNA was dissolved in 10 mM Tris buffer of pH 7.4 having 1 mM EDTA at room temperature. The purity of DNA solution was determined by using the ratio of absorbance at 260 nm and 280 nm wavelength. Extinction coefficient 6600 M^−1 cm^−1 of single nucleotide at 260 nm was used to determine the concentration of the DNA solution. The stock solution of BSA (10^−3 M) was prepared in distilled water and stored at 4 °C temperature.
[…] The dissociation constant of compound 31 was estimated by titrating the complex of compound 31 (10 µM) and BSA (10 µM) with increasing concentration of ibuprofen (0–15 µM), upon excitation at 280 nm. All emission spectra were recorded in the range of 200 to 800 nm.
Binding parameters KSV and Kq were calculated using the Stern-Volmer equation (Eq. 2):2 F0/F=1+Ksv[Analyte]=1+Kqτo[Analyte]
Fo denotes the emission intensity of derivative 31/BSA free from analyte (CT-DNA/ derivative 31), whereas, F denotes the emission intensity of derivative 31/BSA bound with analyte (CT-DNA/derivative 31). The values of KSV and Kq were determined from the plot of Fo/F vs. [analyte].
The binding parameters Kbin and n were determined using Scatchard equation (Eq. 3):3 logF0−F/F=logKbin+nlog[analyte]
Fo and F denote similar factors as those of the above Stern-Volmer equation. The values of Kbin and n were determined from the plot of log (Fo − F)/F vs. log [analyte].

[2] = Homo sapiens, five dose 0.01–100 µM, read-out: LC50 (the source's name)

Sequence of bovine serum albumin (BSA) (P02769 25-607): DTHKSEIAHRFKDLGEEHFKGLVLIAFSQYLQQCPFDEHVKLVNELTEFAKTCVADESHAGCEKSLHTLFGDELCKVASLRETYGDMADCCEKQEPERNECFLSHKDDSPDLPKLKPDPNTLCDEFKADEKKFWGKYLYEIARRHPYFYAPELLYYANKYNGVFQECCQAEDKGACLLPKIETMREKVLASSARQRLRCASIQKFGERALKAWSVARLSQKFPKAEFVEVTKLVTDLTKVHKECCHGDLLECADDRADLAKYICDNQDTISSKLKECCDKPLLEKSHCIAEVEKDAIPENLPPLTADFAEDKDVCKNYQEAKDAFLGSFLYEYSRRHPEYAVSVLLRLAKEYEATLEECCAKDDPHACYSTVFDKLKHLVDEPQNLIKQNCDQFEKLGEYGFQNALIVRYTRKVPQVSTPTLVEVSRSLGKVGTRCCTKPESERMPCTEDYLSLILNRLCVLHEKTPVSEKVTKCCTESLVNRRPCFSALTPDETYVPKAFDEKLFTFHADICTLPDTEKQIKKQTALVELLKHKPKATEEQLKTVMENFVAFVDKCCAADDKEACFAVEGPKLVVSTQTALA

c1cn2cc(-c3ccc4ncn(C5CCCCC5)c4c3)nc(-c3ccc4c(c3)ncn4C3CCCCC3)c2n1 [Compound 31, 8-(1-cyclohexyl-1H-benzo[d]imidazol-5-yl)-6-(1-cyclohexyl-1H-benzo[d]imidazol-6-yl)imidazo[1,2-a]pyrazine]
TGI (HCC-2998; HCC-2998, five dose 0.01–100 µM): 3460 nM
GI50 (HCC-2998; Homo sapiens, HCC 2998): 1810 nM
GI50 (KM12; Homo sapiens): 2010 nM
TGI (KM12): 3830 nM
GI50 (SW-620; Homo sapiens): 2080 nM
TGI (SW-620): 3970 nM
GI50 (IGROV1): 2040 nM
GI50 (NCI/ADR-RES; Homo sapiens): 2340 nM
CC50 (NCI/ADR-RES; [2]): > 1000 nM
inhibition at 10 µM (NCI/ADR-RES; Homo sapiens, read-out: Percent growth inhibition): 98.9%
TGI (NCI/ADR-RES; five dose 0.01–100 µM): 7330 nM
GI50 (OVCAR-4; Homo sapiens, OVCAR-4): 2170 nM
inhibition at 10 µM (OVCAR-4; Homo sapiens, OVCAR-4, read-out: Percent growth inhibition): 97.2%
CC50 (OVCAR-4; Homo sapiens, OVCAR-4, five dose 0.01–100 µM, read-out: LC50 (the source's name)): > 1000 nM
TGI (OVCAR-4; OVCAR-4, five dose 0.01–100 µM): 6300 nM
GI50 (OVCAR-5): 2430 nM
CC50 (OVCAR-5; five dose 0.01–100 µM, read-out: LC50 (the source's name)): > 1000 nM
GI50 (OVCAR-8; Homo sapiens): 2550 nM
CC50 (OVCAR-8; [2]): > 1000 nM
TGI (OVCAR-8; five dose 0.01–100 µM): 9490 nM
GI50 (SK-OV-3; Homo sapiens): 2270 nM
CC50 (SK-OV-3; [2]): 7420 nM
TGI (SK-OV-3; five dose 0.01–100 µM): 4100 nM
GI50 (786-0; Homo sapiens): 1730 nM
TGI (786-0): 3470 nM
GI50 (TK-10; Homo sapiens): 2020 nM
TGI (TK-10): 3650 nM
GI50 (BT-549; Homo sapiens): 1940 nM
CC50 (BT-549; [2]): 6820 nM
TGI (BT-549; five dose 0.01–100 µM): 3640 nM
TGI (HS 578 T; HS 578 T, five dose 0.01–100 µM): 6740 nM
GI50 (HS 578 T; Homo sapiens, Hs-578T): 2390 nM
inhibition at 10 µM (HS 578 T; Homo sapiens, Hs-578T, read-out: Percent growth inhibition): 96.6%
CC50 (HS 578 T; Homo sapiens, HS 578 T, five dose 0.01–100 µM, read-out: LC50 (the source's name)): > 1000 nM
GI50 (MCF7; Homo sapiens): 1800 nM
CC50 (MCF7; [2]): > 1000 nM
TGI (MCF7; five dose 0.01–100 µM): 4580 nM
GI50 (MDA-MB-231/ATCC; Homo sapiens, MDA-MB-231): 1290 nM
CC50 (MDA-MB-231/ATCC; Homo sapiens, MDA-MB-231/ATCC, five dose 0.01–100 µM, read-out: LC50 (the source's name)): 7330 nM
TGI (MDA-MB-231/ATCC; MDA-MB-231/ATCC, five dose 0.01–100 µM): 3080 nM
GI50 (MDA-MB-468): 2320 nM
CC50 (MDA-MB-468; read-out: LC50 (the source's name)): > 1000 nM
GI50 (T-47D; Homo sapiens, T47D): 1900 nM
CC50 (T-47D; Homo sapiens, T47D, T-47D, five dose 0.01–100 µM, read-out: LC50 (the source's name)): > 1000 nM
TGI (T-47D; T-47D, five dose 0.01–100 µM): 4690 nM
apparent binding constant Kapp (EtBr-CT-DNA complex; EtBr displacement, Eq. 4): 750000 M⁻¹
quenching constant (Stern-Volmer) (EtBr-CT-DNA complex; EtBr-CT-DNA 3 µM:30 µM, compound 0-80 µM): 11600 M⁻¹
∆Tm (CT-DNA): 12 °C
Stern-Volmer quenching constant (Ksv) ([1]; BSA): 104000 M⁻¹
apparent bimolecular quenching constant (Kq) ([1]; BSA): 1.04e+13 M⁻¹ s⁻¹
quenching of BSA emission band at 350 nm ([1]; BSA 10 µM, compound 0–16 µM): up to 70%
Kbin ([1]; BSA, Scatchard): 47000 M⁻¹
n (number of binding sites) ([1]; BSA, Scatchard): 0.92
Kd ([1]; BSA, Scatchard, read-out: binding constant (Kbin) (converted)): 21300 nM
KSV ([1]; BSA, Stern-Volmer constant): 104000 M⁻¹
Kq ([1]; BSA, apparent bimolecular quenching constant): 1.04e+13 M⁻¹ s⁻¹
